Results published in patent US20230068414A1, “Herbicide combinations comprising glufosinate and trifludimoxazin” (BASF SE, priority 2020, published 2023).

Key:
[1] = system: Abutilon theophrasti (ABUTH); assay: Greenhouse postemergence weed control, percent injury vs untreated control; type: in vivo
Source text: (§1) For post-emergence treatments, glufosinate and trifludimoxazin, which had been suspended in water, were applied using spray nozzles providing fine to coarse droplets.
(§2) The herbicide compounds applied in the examples were used as experimental or commercially available solo or premix formulations which have been diluted with tap water to a suitable concentration. Glufosinate was used as a commercial SL formulation containing 280 g ai/l of glufosinate (Liberty 280 SL, BASF). While the PPO herbicide Vulcarus containing 500 g ai/l trifludimoxazin was used (Vulcarus 500 SC, BASF) formulation.
(§3) The evaluation for plant injury or damage caused by the chemical compositions was carried out using a scale from 0-100% when compared with the untreated control plants. Here, 0 means no damage and 100 means complete destruction of the plants.
(§4) 22., E=X+Y−(X*Y/100), where
(§5) X=effect in percent using herbicide A at an application rate of a;
(§6) Y=effect in percent using herbicide B at an application rate of b;
(§7) E=expected effect (in %) of A+B at application rates a+b.
(§8) The value E corresponds to the effect (plant damage or injury) which is to be expected if the activity of the individual compounds is just additive. If the observed effect is higher than the value E calculated according to Colby, a synergistic effect is present.
(§9) Weed Control of Glufosinate Plus Trifludimoxazin Mixtures (Greenhouse) Seedlings of velvetleaf (Abutilon theophrasti; ABUTH) and Palmer amaranth (Amaranthus palmeri; AMAPA were treated with postemergence applications of either glufosinate at 246 g ai/ha, trifludimoxazin at 6.25 g ai/ha, or the combination of glufosinate (246 g ai/ha) and trifludimoxazin (6.25 g ai/ha), respectively, when they were 5-10 cm in height. All glufosinate treatments contained 1% (w/v) ammonium sulfate and solo trifludimoxazin treatments contained 1% (w/v) ammonium sulfate plus 1% (v/v) MSO surfactant. Plants were placed in a completely randomized design with four replications per treatment. Percent injury data was collected 21 days after treatment (DAT).

[2] = system: Amaranthus palmeri (AMAPA); assay: as above; type: in vivo
Source text: as §1, §2, §3, §4, §5, §6, §7, §8, §9

`CP(=O)(O)CCC(N)C(=O)O` (racemic) [Glufosinate, (2RS)-2-amino-4-[hydroxy(methyl)phosphinoyl]butyric acid] showed an inhibition at 246 g/ha ([1]; Abutilon theophrasti, post-emergence, 504 h, read-out: Solo Glufosinate (246 g ai/ha) % activity) of 23% and an inhibition at 246 g/ha ([2]; Amaranthus palmeri, post-emergence, 504 h, read-out: Solo Glufosinate (246 g ai/ha) % activity) of 48%.
For `C#CCN1C(=O)C(F)(F)Oc2cc(F)c(-n3c(=O)n(C)c(=S)n(C)c3=O)cc21` [Trifludimoxazin], the “Solo Trifludimoxazin (6.25 g ai/ha) % activity” value ([1]; ABUTH seedlings 5-10 cm, postemergence, 6.25 g ai/ha, 1% ammonium sulfate plus 1% MSO, 21 DAT) was 70% and the “Solo Trifludimoxazin (6.25 g ai/ha) % activity” value ([2]; AMAPA seedlings 5-10 cm, postemergence, 6.25 g ai/ha, 1% ammonium sulfate plus 1% MSO, 21 DAT) was 63%.
